Usually melting point stands for the temperature, or range, at which the solid turns liquid.

In a melting point compilation (Tetko et al.; mined from patent text by program, amines drawn as free bases though some values may be those of a salt) one finds melting point data, which are given here for 34 molecules.

Take `Cc1nnc2n1-c1ccc(C#CCN3Cc4ccccc4C3=O)cc1C(c1ccccc1F)=NC2`: the melting point lay in the range of 165 to 168 °C. As to `CC(C)(C)c1cn2cccc(C=O)c2n1`, the melting point was in the range of 60 to 62 °C. The molecule `CSc1nc(=O)n(C2CCCCC2)c(=O)n1C` yielded a melting point of 137 to 139 °C. Turning to `O=S(=O)(Cc1n[nH]c(-c2ccccc2)n1)c1ccccc1`, the melting point fell in the range of 141 to 144 °C. Molecule `CCCCc1nc(-c2ccco2)c2ncn(Cc3ccc(OC)cc3)c2n1` showed a melting point of 103 °C. On to `CN(C)c1cc(CC(C#N)=CNc2ccccc2)cc(N(C)C)c1Cl`, for which the melting point worked out at 168 °C. Then `CCc1ccc2oc(C(=O)Nc3ccc(-c4ccc(S(=O)(=O)NC(C(=O)O)C(C)C)cc4)cc3)c(C)c2c1OCc1ccccc1` (centres undefined), with 224 to 226 °C; and `CCOC(=O)CNc1c(C)cc(C(O)(C(F)(F)F)C(F)(F)F)cc1C`, with 91 to 93 °C; and `COc1cccc2c1nc(C)c1ccn(-c3ccccc3C)c12`, with 143 to 145 °C. `CC(=O)c1c(C)[nH]c(Cc2ccccc2)c1C` returned a melting point of 166 to 167 °C. Then `COc1cc(Cc2cnc(N)nc2N)c2c(c1OC)OCC=C2`, with 232 to 234 °C; and `CN(C(=O)c1ccc2c(c1)nc(NC(=O)c1cccs1)n2CCCOC(=O)c1cccs1)C1CCCCC1`, with 92 to 94 °C. As to `CCOC(=O)C(O)=Cc1ncc(CCc2ccc(F)cc2)cn1`, the melting point fell in the range of 133 to 134 °C.

As for `CCCS(=O)(=O)c1cc([C@H]2CC[C@H](c3cc(OC)c(OC)c(OC)c3)O2)cc(OC)c1OCCBr` (relative stereo), the melting point was 135 to 136 °C. Regarding `CN(C)CCCNC(=O)c1ccc(-c2cnc3c(c2)N(C(=O)c2ccccc2)CCN3)cc1`, the melting point amounted to 94 °C.

`COC(=O)c1ccc(-c2cc(=O)c3ccc(N)cc3o2)cc1`: the melting point was more than 260 °C.

In turn, `CC(=O)c1sc(=O)[nH]c1C` registered a melting point of 208 to 211 °C. As for `CSC(=C[N+](=O)[O-])NC(C)C(C)(C)C` (centres undefined), the melting point worked out at 69 °C. Then `O=C(NC1C(=O)N(CC23CC4CC(CC(C4)C2)C3)c2ccc(F)cc2N(c2ccccc2)C1=O)Oc1ccccc1` (centres undefined), with 156 to 159 °C. Take `Nc1ccc(Br)cc1C(=O)c1ccccc1`: the melting point is 109 to 110 °C.

In turn, `N#CCC(O)(c1ccc(-c2ccccc2)cc1)c1ccc(-c2ccccc2)cc1` yielded a melting point of 168 to 170 °C. The same measure for `CCCCOc1ccc(CCCOc2nn(CC)cc2CC(=O)O)c(Oc2ccc(C(F)(F)F)cn2)c1`: 81 to 82 °C. As to `O=C(O)c1cc(-c2ccc(C(F)(F)F)cc2)nc(C(F)(F)F)c1`, the melting point was in the range of 204 to 205 °C. In turn, `C=CCCn1c2ccc(OC)cc2c2c3c(c(-c4ccccc4Cl)cc21)C(=O)N(Cc1ccc(OC)cc1OC)C3=O` returned a melting point of 161 to 164 °C. The same measure for `O=c1c([N+](=O)[O-])c[nH]n1-c1c(Cl)cc(C(F)(F)F)cc1Cl`: 100 to 108 °C; for `CCCc1cccc2c(/C=C(\C)C(=O)O)cc(OC)c(OC(C)=O)c12`: 207 to 208 °C. The same measure for `O=c1ccc2c(C(F)(F)F)cc(C(F)(F)F)nc2[nH]1`: 182 to 184 °C; for `O=C(NCCO)c1cccc(-c2ccc3ccn(Cc4ccc(Cl)cc4Cl)c3c2)c1`: 124 to 125 °C. `CCCCc1nccn1Cc1ccc2oc(-c3ccccc3C(=O)O)c(Br)c2c1` returned a melting point of 138 to 145 °C.

`CCSc1nc(N)c(C(N)=S)s1`: the melting point lay in the range of 180 to 183 °C.

Take `COc1ccc(C(O)COc2ccc(C(=O)O)c(O)c2)cc1C(C)(C)C` (centres undefined): the melting point fell in the range of 149 to 150 °C.

The molecule `COc1cc(OC)cc(N2CCN(C(=O)N(C)c3cc4ccccc4nc3OC)CC2)c1` displayed a melting point of 88 to 89 °C.

`CCC(C)n1c(Nc2cc(C(F)(F)F)ccc2C(F)(F)F)nc(C(F)(F)F)c(Cl)c1=O` (centres undefined): the melting point was 133 to 135 °C. `OC1CCc2cc(F)cc(F)c21` (centres undefined) came in with a melting point of 102 to 103 °C.
